Source: patent US20250154169A1, “COMPOUNDS AND METHODS FOR MODULATING SPLICING” (REMIX THERAPEUTICS INC., priority 2021, published 2025)
Counter-ions that a name gives are not always drawn. Like-named read-outs stand apart in the source and are kept apart here.

How the values were obtained:
Assay type in all cases: cell-based, human
HTT mRNA [1] = test: Splicing RT-qPCR assay, HTT canonical (CJ) and alternative (AJ) junction mRNA; conditions: Homo sapiens, A673 or K562 cells, 24 hours compound treatment; for IC50: 24 h, read-out: HTT CJ (IC50, decrease in canonical junction mRNA); for AC50: read-out: HTT AJ (AC50, increase in alternative junction mRNA)
Outline: (§1)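 Canonical (CJ) and alternative-exon (AJ) junction mRNAs quantified by one-step RT-qPCR in cell lysates, normalized to housekeeping PPIA for A673 and GAPDH or GUSB for K562. Cells were exposed 24 h at 37 °C to 11-point 3-fold compound series from 10 uM final, with DMSO at or below 0.25%.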

MYB mRNA = test: Splicing RT-qPCR assay, MYB canonical (CJ) and alternative (AJ) junction mRNA; conditions: Homo sapiens; for AC50: read-out: MYB AJ (AC50, increase in alternative junction mRNA)
Outline: as §1

SMN2 mRNA = test: Splicing RT-qPCR gene panel, SMN2 canonical junction (CJ) mRNA; conditions: Homo sapiens, Tables 4A/4B, read-out: SMN2 (IC50, decrease in CJ mRNA, gene panel)
Outline: (§2)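 First, A673 cells adhered 24 h before dosing, while K562 cells were plated and dosed directly. Both lines were then exposed to compound for 24 h at 37 °C, 5% CO2, top concentration 10 uM. Finally, lysates underwent RT-qPCR of the canonical junction, with ΔΔCt-based relative quantification.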

Target C mRNA = test: Splicing RT-qPCR gene panel, Target C canonical junction (CJ) mRNA; conditions: Homo sapiens, Tables 4A/4B, read-out: Target C (IC50, decrease in CJ mRNA, gene panel)
Outline: as §2

HTT mRNA [2] = test: Splicing RT-qPCR gene panel, HTT canonical junction (CJ) mRNA; conditions: Homo sapiens, Tables 4A/4B, read-out: HTT (IC50, decrease in CJ mRNA, gene panel)
Outline: as §2

[3] = 24 h, A673 or K562 cells, 24 hours compound treatment, RT-qPCR
[4] = 24 h, A673 or K562 cells, 24 hours compound treatment, RT-qPCR, read-out: MYB CJ (IC50, decrease in canonical junction mRNA)
[5] = Tables 4A/4B, canonical junction qPCR panel, read-out: MYB (IC50, decrease in CJ mRNA, gene panel)

SMILES	IC50 (HTT mRNA [1])	AC50 (HTT mRNA [1])	AC50 (MYB mRNA; [3])	IC50 (MYB mRNA; [4])	IC50 (MYB mRNA; [5])	IC50 (SMN2 mRNA)	IC50 (Target C mRNA)	IC50 (HTT mRNA [2])
Cc1cn2cc(NC(=O)c3ccc(N4CCNCC4)c4cn(CCO)nc34)cc(F)c2n1 [Compound 291, N-{8-fluoro-2-methylimidazo[1,2-a]pyridin-6-yl}-2-(2-hydroxyethyl)-4-(piperazin-1-yl)indazole-7-carboxamide hydrochloride]	1 to 10 µM	1 to 10 µM	0.1 to 1 µM	0.1 to 1 µM	0.1 to 1 µM	< 0.1 µM	1 to 10 µM	1 to 10 µM
COCCn1cc2c(N3CCNCC3)ccc(C(=O)Nc3cc(F)c4nc(C)cn4c3)c2n1 [Compound 292, N-{8-fluoro-2-methylimidazo[1,2-a]pyridin-6-yl}-2-(2-methoxyethyl)-4-(piperazin-1-yl)indazole-7-carboxamide hydrochloride]	1 to 10 µM	1 to 10 µM	< 0.1 µM	< 0.1 µM	< 0.1 µM	< 0.1 µM	1 to 10 µM	1 to 10 µM
Cc1cn2cc(NC(=O)c3ccc(N4CCNCC4)c4cn(C)nc34)nc(C)c2n1 [Compound 293, N-{2,8-dimethylimidazo[1,2-a]pyrazin-6-yl}-2-methyl-4-(piperazin-1-yl)indazole-7-carboxamide]	1 to 10 µM	0.1 to 1 µM	< 0.1 µM	< 0.1 µM	< 0.1 µM	< 0.1 µM	> 10 µM	1 to 10 µM
Cc1cn2cc(NC(=O)c3ccc(N4CCNCC4)c4cn(C5CC5)nc34)cc(F)c2n1 [Compound 294, 2-cyclopropyl-N-{8-fluoro-2-methylimidazo[1,2-a]pyridin-6-yl}-4-(piperazin-1-yl) indazole-7-carboxamide]	0.1 to 1 µM	1 to 10 µM	< 0.1 µM	< 0.1 µM	< 0.1 µM	< 0.1 µM	> 10 µM	0.1 to 1 µM
Cc1cn2cc(NC(=O)c3ccc(N4CCNCC4)c4cn(C5COC5)nc34)cc(F)c2n1 [Compound 295, N-{8-fluoro-2-methylimidazo[1,2-a]pyridin-6-yl}-2-(oxetan-3-yl)-4-(piperazin-1-yl)indazole-7-carboxamide]	> 10 µM	1 to 10 µM	0.1 to 1 µM	0.1 to 1 µM	0.1 to 1 µM	< 0.1 µM	> 10 µM	> 10 µM
Cc1cn2cc(NC(=O)c3ccc(N4CCC(NC5CC5)C4)c4cn(C)nc34)cc(F)c2n1 (stereo not drawn) [Compound 296, 4-[3-(cyclopropylamino)pyrrolidin-1-yl]-N-{8-fluoro-2-methylimidazo[1,2-a]pyridin-6-yl}-2-methylindazole-7-carboxamide]	> 10 µM	> 10 µM	< 0.1 µM	< 0.1 µM	< 0.1 µM	< 0.1 µM	> 10 µM	> 10 µM
Cc1cn2cc(NC(=O)c3ccc(N4CCNCC4)c4c(C)n(C)nc34)cc(F)c2n1 [Compound 297]	1 to 10 µM	1 to 10 µM	1 to 10 µM	1 to 10 µM	1 to 10 µM	0.1 to 1 µM	1 to 10 µM	1 to 10 µM
CNC1CCN(c2ccc(C(=O)Nc3cc(F)c4nc(C)cn4c3)c3nn(C)cc23)C1 (stereo not drawn) [Compound 298, N-{8-fluoro-2-methylimidazo[1,2-a]pyridin-6-yl}-2-methyl-4-[3-(methylamino)pyrrolidin-1-yl]indazole-7-carboxamide trifluoroacetic acid salt]	1 to 10 µM	1 to 10 µM	0.1 to 1 µM	< 0.1 µM	< 0.1 µM	< 0.1 µM	1 to 10 µM	1 to 10 µM
Cc1cn2cc(NC(=O)c3ccc(N4CCC5(CCN5)C4)c4cn(C)nc34)cc(F)c2n1 (stereo not drawn) [Compound 299, 4-{1,6-diazaspiro[3.4]octan-6-yl}-N-{8-fluoro-2-methylimidazo[1,2-a]pyridin-6-yl}-2-methylindazole-7-carboxamide]	> 10 µM	> 10 µM	0.1 to 1 µM	0.1 to 1 µM	0.1 to 1 µM	< 0.1 µM	> 10 µM	> 10 µM
Cc1cn2cc(NC(=O)c3cc(C)c(N4CCNCC4)c4cn(C)nc34)cc(F)c2n1 [Compound 300]	> 10 µM	> 10 µM	0.1 to 1 µM	1 to 10 µM	1 to 10 µM	0.1 to 1 µM	> 10 µM	> 10 µM
Cc1cn2cc(NC(=O)c3ccc(N4CCC5(CCN5)CC4)c4cn(C)nc34)cc(F)c2n1 [Compound 301, 4-{1,7-diazaspiro[3.5]nonan-7-yl}-N-{8-fluoro-2-methylimidazo[1,2-a]pyridin-6-yl}-2-methylindazole-7-carboxamide trifluoroacetic acid salt]	0.1 to 1 µM	0.1 to 1 µM	< 0.1 µM	< 0.1 µM	< 0.1 µM	< 0.1 µM	1 to 10 µM	0.1 to 1 µM
COCCCn1cc2c(N3CCNCC3)ccc(C(=O)Nc3cc(F)c4nc(C)cn4c3)c2n1 [Compound 302, N-{8-fluoro-2-methylimidazo[1,2-a]pyridin-6-yl}-2-(3-methoxypropyl)-4-(piperazin-1-yl)indazole-7-carboxamide]	1 to 10 µM	1 to 10 µM	< 0.1 µM	< 0.1 µM	< 0.1 µM	< 0.1 µM	> 10 µM	1 to 10 µM
Cc1cn2cc(NC(=O)c3cc(F)c(N4CCNCC4)c4cn(C)nc34)cc(F)c2n1 [Compound 303, 5-fluoro-N-{8-fluoro-2-methylimidazo[1,2-a]pyridin-6-yl}-2-methyl-4-(piperazin-1-yl)indazole-7-carboxamide]	1 to 10 µM	1 to 10 µM	0.1 to 1 µM	0.1 to 1 µM	0.1 to 1 µM	< 0.1 µM	> 10 µM	1 to 10 µM
Cc1cn2cc(NC(=O)c3ccc(N4CCNCC4)c4cn(C5CCOCC5)nc34)cc(F)c2n1 [Compound 304, N-{8-fluoro-2-methylimidazo[1,2-a]pyridin-6-yl}-2-(oxan-4-yl)-4-(piperazin-1-yl) indazole-7-carboxamide trifluoroacetic acid salt]	1 to 10 µM	> 10 µM	0.1 to 1 µM	0.1 to 1 µM	0.1 to 1 µM	< 0.1 µM	> 10 µM	1 to 10 µM
Cc1cn2cc(NC(=O)c3ccc(N4CCNCC4)c4cn(CCF)nc34)cc(F)c2n1 [Compound 305, N-{8-fluoro-2-methylimidazo[1,2-a]pyridin-6-yl}-2-(2-fluoroethyl)-4-(piperazin-1-yl)indazole-7-carboxamide]	1 to 10 µM	1 to 10 µM	0.1 to 1 µM	0.1 to 1 µM	0.1 to 1 µM	< 0.1 µM	> 10 µM	1 to 10 µM
COCCn1cc2c(N3C[C@@H](C)N[C@@H](C)C3)ccc(C(=O)Nc3cc(F)c4nc(C)cn4c3)c2n1 [Compound 306, 4-[(3R,5S)-3,5-dimethylpiperazin-1-yl]-N-{8-fluoro-2-methylimidazo[1,2-a]pyridin-6-yl}-2-(2-methoxyethyl) indazole-7-carboxamide]	1 to 10 µM	1 to 10 µM	< 0.1 µM	0.1 to 1 µM	0.1 to 1 µM	< 0.1 µM	> 10 µM	1 to 10 µM
CCNC1CCN(c2ccc(C(=O)Nc3cc(F)c4nc(C)cn4c3)c3nn(CCOC)cc23)CC1 [Compound 307, 4-[4-(ethylamino)piperidin-1-yl]-N-{8-fluoro-2-methylimidazo[1,2-a]pyridin-6-yl}-2-(2-methoxyethyl) indazole-7-carboxamide]	1 to 10 µM	1 to 10 µM	0.1 to 1 µM	0.1 to 1 µM	0.1 to 1 µM	< 0.1 µM	> 10 µM	1 to 10 µM
Cc1cn2cc(NC(=O)c3ccc(N4CCNCC4)c4cn(CC5(C)COC5)nc34)cc(F)c2n1 [Compound 308, N-{8-fluoro-2-methylimidazo[1,2-a]pyridin-6-yl}-2-[(3-methyloxetan-3-yl)methyl]-4-(piperazin-1-yl)indazole-7-carboxamide]	> 10 µM	> 10 µM	> 10 µM	> 10 µM	> 10 µM	> 10 µM	> 10 µM	> 10 µM
